Experimental data from patent US9920017B2, “Heterocyclic compounds as pesticides” (BAYER CROPSCIENCE AKTIENGESELLSCHAFT, priority 2014, dated 2018).
Where two headings read alike, the source gives them in different places.

Assays:
[1] = Determination of log P values by HPLC (reversed-phase C18); type: physicochemical; settings: for chromatographic logP: reversed-phase C18 HPLC column
Method: 1) Description of Method for Determination of the Log P Values ([…]) The log P values given in the table were determined in accordance with EEC Directive 79/831 Annex V.A8 by HPLC (High Performance Liquid Chromatography) using a reversed-phase column (C 18). Temperature: 55° C. […] Gradient: from 10% eluent A/90% eluent B to 95% eluent A/5% eluent B in 4.25 min. Calibration was effected with unbranched alkan-2-ones (having 3 to 16 carbon atoms) with known log P values (log P values determined on the basis of the retention times by linear interpolation between two successive alkanones). The lambda max values were determined in the maxima of the chromatographic signals using the UV spectra from 200 nm to 400 nm.

Phaedon cochleariae = Phaedon cochleariae spray test (PHAECO); type: in vivo; settings: 500 g/ha; Chinese cabbage leaf discs, larvae; after 7 days
Method: Phaedon cochleariae—Spray Test (PHAECO)
Solvent: 78.0 parts by weight of acetone • • 1.5 parts by weight of dimethylformamide
Emulsifier: alkylaryl polyglycol ether
To produce an appropriate active ingredient formulation, 1 part by weight of active ingredient is dissolved using the stated parts by weight of solvent and made up with water containing an emulsifier concentration of 1000 ppm until the desired concentration is attained. To produce further test concentrations, the preparation is diluted with emulsifier-containing water.
Discs of Chinese cabbage leaves (Brassica pekinensis) are sprayed with an active ingredient formulation of the desired concentration and, after drying, populated with larvae of the mustard beetle (Phaedon cochleariae).
After 7 days, the efficacy in % is determined 100% means that all the beetle larvae have been killed; 0% means that no beetle larvae have been killed.

Meloidogyne incognita = Meloidogyne incognita test (MELGIN); type: in vivo; settings: 20 ppm; lettuce; after 14 days
Method: Meloidogyne incognita Test (MELGIN) Solvent: 125.0 parts by weight of acetone To produce a suitable active ingredient formulation, 1 part by weight of active ingredient is mixed with the stated amount of solvent and the concentrate is diluted with water to the desired concentration. Vessels are filled with sand, active ingredient solution, an egg/larvae suspension of the southern root-knot nematode (Meloidogyne incognita) and lettuce seeds. The lettuce seeds germinate and the plants develop. The galls develop on the roots. After 14 days, the nematicidal efficacy in % is determined by the formation of galls. 100% means that no galls were found; 0% means that the number of galls on the treated plants corresponds to the untreated control.

Cooperia curticei = Cooperia curticei test; type: in vivo; settings: 20 ppm; nematode larvae; after 5 days
Method: (§1) Solvent: dimethyl sulphoxide
To produce an appropriate active ingredient formulation, 10 mg of active ingredient are mixed with 0.5 ml of dimethyl sulphoxide and the concentrate is diluted with “Ringer's solution” to the desired concentration.
Vessels containing the active ingredient formulation of the desired concentration are populated with about 40 nematode larvae (Cooperia curticei).
After 5 days, the kill in % is determined 100% means that all the larvae have been killed; 0% means that none of the larvae have been killed.

Boophilus microplus = Boophilus microplus injection test; type: in vivo; settings: 20 μg/animal injected into engorged adult female cattle ticks; assessed after 7 days by laying of fertile eggs
Method: Boophilus microplus—Injection Test
as §1
To produce an appropriate active ingredient formulation, 10 mg of active ingredient are mixed with 0.5 ml of solvent and the concentrate is diluted with solvent to the desired concentration.
1 μl of the active ingredient solution is injected into the abdomen of 5 engorged adult female cattle ticks (Boophilus microplus). The animals are transferred into dishes and kept in a climate-controlled room.
Efficacy is assessed after 7 days by laying of fertile eggs. Eggs which are not visibly fertile are stored in a climate-controlled cabinet for about another 42 days until the larvae hatch. An efficacy of 100% means that none of the ticks has laid any fertile eggs; 0% means that all the eggs are fertile.

[2] = HPLC, reversed-phase C18, 55° C., final compounds table
[3] = HPLC-MS, preparation examples, read-out: log P (neutral)

| SMILES | log P neutral [1, 2] | nematicidal efficacy (formation of galls) (Meloidogyne incognita) [%] | efficacy (kill) (Cooperia curticei) [%] | other results |
| --- | --- | --- | --- | --- |
| O=C(Nc1ncn(-c2c(F)cccc2F)n1)c1ncccc1C(F)(F)F [Compound I-1-91] | 1.82 | 100 |  | efficacy (Phaedon cochleariae): 100% |
| O=C(Nc1ncn(-c2c(F)cccc2F)n1)c1c(F)cccc1C(F)(F)F [Compound I-1-20] | 2.04 | 100 | 100 |  |
| O=C(Nc1ncn(-c2c(F)cccc2Br)n1)c1ccccc1C(F)(F)F [Compound I-1-30, 2-Trifluoromethyl-N-[1-(2-bromo-6-fluorophenyl)-1H-1,2,4-triazol-3-yl]benzamide] |  | 100 | 80 | chromatographic logP [1, 3]: 2.15; efficacy (Boophilus microplus): 100% |
| O=C(Nc1ncn(-c2c(F)cccc2F)n1)c1ccccc1C(F)F [Compound I-1-18] | 1.92 | 100 |  | efficacy (Phaedon cochleariae): 83%; efficacy (Boophilus microplus): 80% |
| O=C(Nc1ncn(-c2ccccc2Cl)n1)c1ccccc1Br [Compound I-1-4] | 1.97 | 90 |  |  |
| CCc1ccccc1C(=O)Nc1ncn(-c2c(F)ccc(F)c2F)n1 [Compound I-1-60] | 2.21 | 100 |  |  |
| O=C(Nc1ncn(-c2c(F)cccc2C(F)(F)F)n1)c1ccccc1I [Compound I-1-28, N-{1-[2-Fluoro-6-(trifluoromethyl)phenyl]-1H-1,2,4-triazol-3-yl}-2-iodobenzamide] |  | 100 | 80 | chromatographic logP [1, 3]: 2.21 |
| O=C(Nc1ncn(-c2c(F)ccc(F)c2F)n1)c1ccccc1I [Compound I-1-59] | 2.03 | 100 | 90 | efficacy (Boophilus microplus): 100% |
| O=C(Nc1ncn(-c2c(F)cccc2F)n1)c1ccccc1[N+](=O)[O-] [Compound I-1-22] | 1.54 | 90 |  |  |
| CCc1ccccc1C(=O)Nc1ncn(-c2c(F)cccc2F)n1 [Compound I-1-15] |  | 100 |  | chromatographic logP [1, 3]: 2.05 |
| O=C(Nc1ncn(-c2c(F)cc(F)cc2F)n1)c1ccccc1I [Compound I-1-63] | 2.00 | 100 | 100 |  |
| CCc1ccccc1C(=O)Nc1ncn(-c2c(F)cc(F)cc2F)n1 [Compound I-1-64] | 2.14 | 100 |  |  |
| O=C(Nc1ncn(-c2c(F)cccc2F)n1)c1ccccc1Cl [Compound I-1-13, 2-Chloro-N-[1-(2,6-difluorophenyl)-1H-1,2,4-triazol-3-yl]benzamide] |  | 100 |  | chromatographic logP [1, 3]: 1.73 |
| O=C(Nc1ncn(-c2c(F)c(F)cc(F)c2F)n1)c1ccccc1Cl [Compound I-1-92] | 2.04 | 90 |  |  |
| O=C(Nc1nnn(-c2ccccc2)n1)c1ccccc1C(F)(F)F [Compound I-2-3, N-(2-Phenyl-2H-tetrazol-5-yl)-2-(trifluoromethyl)benzamide] |  |  |  | chromatographic logP ([1]; pH 3.4, HPLC-MS, preparation examples, read-out: log P): 2.57; chromatographic logP ([1]; HPLC, reversed-phase C18, 55° C., final compounds table, read-out: log P neutral): 2.57; efficacy (Phaedon cochleariae): 100% |
| O=C(Nc1ncn(-c2c(F)c(F)c(F)c(F)c2F)n1)c1ccccc1I [Compound I-1-67] | 2.43 | 90 |  |  |
| O=C(Nc1ncn(-c2c(F)c(F)c(F)c(F)c2F)n1)c1ccccc1C(F)(F)F [Compound I-1-65] | 2.49 |  |  | efficacy (Boophilus microplus): 100% |

Continued, in another order:

| log P neutral [1, 2] | SMILES | nematicidal efficacy (formation of galls) (Meloidogyne incognita) [%] | efficacy (kill) (Cooperia curticei) [%] | other results |
| --- | --- | --- | --- | --- |
| 2.10 | O=C(Nc1ncn(-c2c(F)cccc2Cl)n1)c1ccccc1C(F)(F)F [Compound I-1-33] | 100 | 100 | efficacy (Phaedon cochleariae): 100%; efficacy (Boophilus microplus): 100% |
| 2.25 | O=C(Nc1ncn(-c2c(F)cccc2C(F)(F)F)n1)c1ccccc1C(F)(F)F [Compound I-1-26] | 100 | 90 |  |
| 2.15 | O=C(Nc1ncn(-c2c(F)cccc2I)n1)c1ccccc1I [Compound I-1-85] | 100 | 80 |  |
| 2.21 | O=C(Nc1ncn(-c2c(F)cccc2I)n1)c1ccccc1C(F)(F)F [Compound I-1-83] | 100 | 80 |  |
| 2.15 | O=C(Nc1ncn(-c2ccccc2Br)n1)c1ccccc1C(F)(F)F [Compound I-1-70] | 90 | 80 |  |
| 2.09 | O=C(Nc1ncn(-c2c(Cl)cccc2Cl)n1)c1ccccc1Br [Compound I-1-45] | 100 |  |  |
| 1.85 | O=C(Nc1ncn(-c2c(F)cc(F)cc2F)n1)c1ccccc1Cl [Compound I-1-62] | 100 |  |  |
| 2.03 | O=C(Nc1ncn(-c2c(Cl)cccc2Cl)n1)c1ccccc1Cl [Compound I-1-46] | 90 |  |  |
| 1.80 | O=C(Nc1ncn(-c2c(F)cccc2F)n1)c1ccccc1Br [Compound I-1-12] | 90 |  |  |
| 2.10 | O=C(Nc1ncn(-c2c(F)ccc(F)c2F)n1)c1ccccc1C(F)(F)F [Compound I-1-57] | 100 | 100 | efficacy (Boophilus microplus): 90% |
| 2.46 | O=C(Nc1ncn(-c2c(Br)cc(F)cc2Br)n1)c1ccccc1C(F)(F)F [Compound I-1-87] | 90 |  |  |
| 2.32 | O=C(Nc1ncn(-c2c(Br)cccc2Br)n1)c1ccccc1C(F)(F)F [Compound I-1-80] | 100 |  |  |
| 1.72 | Cc1ccccc1C(=O)Nc1ncn(-c2c(F)cccc2F)n1 [Compound I-1-14] | 100 |  |  |
| 2.51 | O=C(Nc1ncn(-c2ccccc2OC(F)(F)F)n1)c1ccccc1C(F)(F)F [Compound I-1-10] | 100 |  | efficacy (Boophilus microplus): 100% |
| 2.26 | Cc1cccc(Cl)c1-n1cnc(NC(=O)c2ccccc2C(F)(F)F)n1 [Compound I-1-40] | 90 |  |  |
| 1.91 | O=C(Nc1ncn(-c2c(F)ccc(F)c2F)n1)c1ccccc1Cl [Compound I-1-58] | 100 |  |  |
| 2.04 | O=C(Nc1ncn(-c2c(F)cccc2Cl)n1)c1ccccc1I [Compound I-1-35] | 100 |  |  |
| 2.26 | O=C(Nc1ncn(-c2c(Cl)cccc2Cl)n1)c1ccccc1C(F)(F)F [Compound I-1-44] | 100 |  | efficacy (Boophilus microplus): 90% |
| 2.05 | O=C(Nc1ncn(-c2c(F)cc(F)cc2F)n1)c1ccccc1C(F)(F)F [Compound I-1-61] | 100 | 80 |  |
| 2.39 | CCc1ccccc1C(=O)Nc1ncn(-c2c(F)cccc2C(F)(F)F)n1 [Compound I-1-29] | 100 |  |  |
| 2.24 | O=C(Nc1ncn(-c2ccccc2C(F)(F)F)n1)c1ccccc1C(F)(F)F [Compound I-1-8] | 100 |  |  |
